Reference: patent publication US6489118B2, “Allergenic proteins and peptides from dog dander and uses therefor” (ImmuLogic Pharmaceutical Corporation, priority 1992, dated 2002)

How the values were obtained:
[1] = test system: human T cell lines primed with recombinant Can f I; assay: Secondary human T cell proliferation assay (3H thymidine incorporation); assay type: cell-based; settings: for percentage of positive responders (T cell stimulation index of at least two): tested dog allergic individuals
Description: In one embodiment, peptides which have Can f I or Can f II T cell stimulating activity (i.e., the peptide comprises at least one T cell epitope) can be identified using an algorithm which predicts the presence of T cell epitopes in a protein sequence, such as the algorithm described by Hill et al., Journal of Immunology, 147:189-197 (1991). The algorithm of Hill et al. predicts the location of T cell epitopes in a protein by the presence of certain patterns within the sequence which are likely to bind MHC and therefore may contain T cell epitopes. Based on the Hill et al. algorithm, two 13 amino acid peptides (discussed in Example 10) have been identified and produced synthetically. Such peptides were tested for T cell activity as described above (e.g., by measuring cellular uptake of tritiated thymidine). Specifically, in Example 10, human T cell stimulating activity was tested by culturing T cells obtained from an individual sensitive to Can f I (i.e., an individual who has an IgE mediated immune response to Can f I) with a peptide derived from Can f I and proliferation of T cells in response to the peptide was determined, e.g., by measuring cellular uptake of tritiated thymidine. Stimulation indices for responses by T cells to peptides were calculated as the maximum CPM in response to a peptide divided by the control CPM. A stimulation index (S.I.) equal to or greater than two times the background level was considered “positive”. Positive results were used to calculate the mean stimulation index for each peptide for the group of patients tested (See FIG. 25). Preferred peptides of this invention comprise at least one T cell epitope and have a mean T cell stimulation index of greater than or equal to 2.0. A peptide having a mean T cell stimulation index of greater than or equal to 2.0 in a significant number of dog dander allergen sensitive patients tested is considered useful as a therapeutic agent. Preferred peptides have a mean T cell stimulation index of at least 2.5, more preferably at least 3.0, more preferably at least 3.5, more preferably at least 4.0, more preferably at least 5.0 and most preferably at least about 6. For example, peptides having a Can f I activity and having a mean T cell stimulation index of at least 5, as indicated by data shown in FIG. 25, include Construct 1 (SEQ ID NO: 105), Construct 2 (SEQ ID NO: 106), and Construct 3 (SEQ ID NO:107). T cell epitopes can also be predicted and determined as described above for peptides derived from Can f II.
In addition, preferred peptides have a positivity index (P.I.) of at least about 60, more preferably about 100, more preferably at least about 200 and most preferably at least about 300. The positivity index for a peptide is determined by multiplying the mean T cell stimulation index by the percent of individuals, in a population of individuals sensitive to dog dander allergens (e.g., preferably a population of at least 12 individuals, more preferably a population of at least 30 individuals or more), who have a T cell stimulation index to such peptide of at least 2.0. Thus, the positivity index represents both the strength of a T cell response to a peptide (S.I.) and the frequency of a T cell response to a peptide in a population of individuals sensitive to dog dander allergens.
In order to perform in vitro assays of human T cell proliferative response to Can f I and the five Can f I peptides described above, whole blood obtained from subjects allergic to Can f I in a skin prick test was passed through a Lymphocyte Separation Media (LSM) to remove platelets, red blood cells and granulocytes. The resulting peripheral blood mononuclear cells (PBMC) were stimulated with 50 μg/ml of recombinant Can f I produced as described in Example 2 for 6 days in RPMI 1640 medium supplemented with 5% heat inactivated human AB serum, 2 mM L-glutamine,10 mM HEPES, 50 μM 2-mercapto-ethanol and 100 U/ml penicillin and streptomycin. […]

human IgE [2] = assay: Western blot of protein preparations probed with patient plasma IgE; assay type: binding; settings: plasma of dog allergic patient #901, 1:20 dilution; 5 μg/lane
Protocol: Western Blot analysis of four different protein preparations as potential sources Can f I was performed. The four different prepparations used for Western blotting were: dog hair extract, dog saliva, bacterially expressed rCan f I (used for the ELISA) and rCan f I as expressed in a mammalian cell culture system. These preparations were loaded on a 15% acrylamide SDS-PAGE (lanes 1-4, respectively) at 5 μg/lane. The protein concentrations were based on the Bicinchoninic acid (BCA) assay (Pierce, Rockford, Ill.). Following electrophoresis, the proteins were transferred to nitrocellulose and stained with India Ink. The nitrocellulose sections were blocked by incubation in Tween solution with 1% milk/1% BSA for 30 minutes room temperature, then probed with patient #901 plasma or negative control patient #250 at a 1:20 dilution in tween mild solution. This first antibody incubation was carried out overnight at room temperature. Biotinylated goat anti-human IgE (KPL) was used as the second antibody at a 1:5000 dilution for a two hour incubation. Streptavidin-HRPO (1:20,000 dilution) and the ECL Western Blot Detection system (Amersham, Arlington Heights, Ill.) were used for detection by chemiluminescence. A 20 second exposure was performed and the film developed. The results from this assay show no recognition of the protein preparations by patient #250 IgE. […]

human IgE [3] = assay: Direct binding of human IgE to recombinant Can f I by ELISA
Protocol: An ELISA plate (IMMULON II Dynatech, Chantilly, Va.) was coated with bacterially expressed recombinant Can f I, (rCan f I) at 0.5 μg/well in PBS-Tween and incubated overnight at 4° C. The coating antigen was removed and the wells were blocked with 0.5% gelatin in PBS, 200 μl/well for two hours at room temperature. Plasma from a skin test positive dog allergic patient, #901, was serially diluted with PBS-Tween and 100 μl was added per well and incubated overnight at 4° C. (the plasma dilutions were tested in duplicate). The second antibody (biotinylated goat anti-human IgE 1:1000, Kirkegaard & Perry Laboratories) was added at 100 μl/well for one hour at room temperature. This solution was removed and streptavidin-HRPO at 1:10,000, (Southern Biotecnology Associates, Inc. Birmingham, Ala.) was added for one hour at room temperature. TMB Membrane Peroxidase Substrate system (Kirkegaard & Perry Laboratories) was freshly mixed and added at 100 μl. The color was allowed to develop for 2-5 minutes. The reaction was stopped by the addition of 100 μl/well of 1M phosphoric acid. The plate was read on a Mircoplate EL 310 Autoreader (Biotek Instruments, Winooski, Vt.) with a 450 nm filter. The absorbance levels of duplicate wells were averaged. […] A known negative patient (#250) was also tested and shown to be negative by this assay.

human IgE [4] = assay: Direct binding ELISA of human IgE to native and recombinant Can f II
Protocol: Plasma samples from 14 dog-allergic patients (skin test 4+) were assayed for IgE binding to native Can f II and rCan f II. An ELISA plate (Immulon II Dynatech, Chantilly, Va.) was coated with native and bacterially expressed recombinant Can f II at 0.5 μg/well in PBS-Tween and incubated overnight at 4° C. The coating antigen was removed and the wells were blocked with 0.5% gelatin in PBS, 200 μl/well for two hours at room temperature. Binding of human IgE to the coating antigen was detected using biotinylated goat-anti-human IgE, streptavidin linked to peroxidase and TMB substrate. Reactions were read on a plate reader at 450 nm (A450). Of 14 plasma samples tested for IgE to native Can f II, 5 contained detectable antibody binding (FIG. 22A), with plasma from patients #901 and #227 containg the highest levels. Similarly, of 23 plasma samples tested for IgE to recombinant, bacterially expressed Can f II, several contained detectable antibody binding (FIGS. 22B and C).

[5] = test system: IgE binding to dog dander extracts; settings: RAST analysis; cited from earlier work
[6] = test system: IgE of dog allergic patients; settings: purified allergen; cited from earlier work

A0095: 13 amino acid synthetic peptide, Can f I amino acids 7 through 19 (SEQ ID NO:108) (GKWYLKAMTADQE) [Construct A0095]
positivity index (mean S.I. x percent positive responders) ([1]; FIG. 10): 129
mean T cell stimulation index (S.I.) ([1]; mean of positive responses (S.I. >= 2), T cell lines from dog allergic patients primed with rCan f I, FIG. 25): 3.0
percentage of positive responders (T cell stimulation index of at least two) [1]: 43%

Construct 2: recombinant fragment of Can f I, amino acids 56 through 108 (SEQ ID NO: 106), expressed in E. coli (TVVLHKTSEPGKYTAYEGQRVVFIQPSPVRDHYILYCEGELHGRQIRMAKLLG)
percentage of positive responders (T cell stimulation index of at least two) [1]: 73%

Construct 3: recombinant fragment of Can f I, amino acids 90 through 148 (SEQ ID NO: 107), expressed in E. coli
percentage of positive responders (T cell stimulation index of at least two) [1]: 82%

A0096: 13 amino acid synthetic peptide, Can f I amino acids 42 through 54 (SEQ ID NO:109) (AKITMLTNGQCQN) [Construct A0096]
percentage of positive responders (T cell stimulation index of at least two) [1]: 43%

mammalian expressed rCan f I: recombinant Can f I expressed in a mammalian cell culture system (NIH 3T3), COOH-terminal His6
IgE binding on Western blot (human IgE [2]): extremely faint

Construct 1: recombinant fragment of Can f I, amino acids 1 through 65 (SEQ ID NO: 105), expressed in E. coli with His6
percentage of positive responders (T cell stimulation index of at least two) [1]: 64%

rCan f I: bacterially expressed recombinant Can f I dog allergen with His6 reporter group
percentage of positive responders (T cell stimulation index of at least two) [1]: 89%
IgE binding level relative to background (human IgE [3]; plasma of dog allergic patient #901 at 1/162 dilution, antigen 0.5 μg/well): two-fold above background
IgE binding, negative control patient (human IgE [3]; plasma of known negative patient #250): negative
IgE binding on Western blot (human IgE [2]): distinct binding

B1: Can f II: minor dog dander allergen, affinity purified native protein (de Groot et al.) (protein)
chain: EGNHEEPQGGLEELSGRWHSVALASNKSDLIKPWGHFRVFIHSMSAKDGNLHGDILIPQDGQCEKVSLTAFKTATSNKFDLEYWGHNDLYLAEVDPKSYLILYMINQYNDDTSLVAHLMVRDLSRQQDFLPAFESVCEDIGLHKDQIVVLSDDDRCQGSRD
number of plasma samples with detectable IgE antibody binding (human IgE [4]; of 14 plasma samples from dog-allergic patients (skin test 4+), FIG. 22A): 5
competition with the IgE directed against dog dander extract [5]: 23%
dog allergic patients whose IgE reacts with the allergen [6]: 66%

B2: recombinant, bacterially expressed Can f II: bacterially expressed recombinant Can f II with His6 reporter group (protein)
chain: EGNHEEPQGGLEELSGRWHSVALASNKSDLIKPWGHFRVFIHSMSAKDGNLHGDILIPQDGQCEKVSLTAFKTATSNKFDLEYWGHNDLYLAEVDPKSYLILYMINQYNDDTSLVAHLMVRDLSRQQDFLPAFESVCEDIGLHKDQIVVLSDDDRCQGSRD
modifications: left off: small tags and cut ends
notes: bacterially expressed recombinant Can f II with His6 reporter group
number of plasma samples with detectable IgE antibody binding (human IgE [4]; of 23 plasma samples, FIGS. 22B and C): several

B3: Can f I: major dog allergen of Canis familiaris; mature protein of SEQ ID NO: 2; immunoaffinity purified in cited work (protein)
chain: MKTLLLTIGFSLIAILQAQDTPALGKDTVAVSGKWYLKAMTADQEVPEKPDSVTPMILKAQKGGNLEAKITMLTNGQCQNITVVLHKTSEPGKYTAYEGQRVVFIQPSPVRDHYILYCEGELHGRQIRMAKLLGRDPEQSQEALEDFREFSRAKGLNQEILELAQSETCSPGGQ
depletion of IgE binding to dog dander extracts [5]: 50-70%
